# Experimental data from ChEMBL document CHEMBL1151994, “Plant seeds as sources of potential industrial chemicals, pharmaceuticals, and pest control agents” (2009).
# Assays:
# Format in all cases: functional
# Ostrinia nubilalis = assay: Insecticidal activity against Ostrinia nubilalis; conditions: read-out: LD50 (the source's name)
# P388 [1] = assay: In vivo antitumor activity against mouse P388 cells at 1 to 3.3 mg/kg relative to control; conditions: dose mg/kg 1-3.3
# KB = assay: Cytotoxicity against human KB cells; conditions: for EC50: Homo sapiens, KB, read-out: ED50 (the source's name)
# L1210 = assay: In vivo antitumor activity against mouse L1210 cells at 0.25 to 1 mg/kg relative to control; conditions: dose mg/kg 0.25-1
# P388 [2] = assay: In vivo antitumor activity against mouse P388 cells at 0.25 to 1 mg/kg relative to control; conditions: dose mg/kg 0.25-1
# PS [3] = assay: In vivo antitumor activity against […] PS cells at 8 to 23 ug/kg relative to control
# PS [4] = assay: In vivo antitumor activity against […] PS cells at 1 to 31 ug/kg relative to control
# [5] = In vivo antitumor activity against human B1 cells at 4 to 32 ug/kg relative to control
structure (smiles),measurement,setting,value
CO[C@@H]1[C@@H](O)[C@H](C)O[C@@H](O[C@H]2CC[C@@]3(C)[C@H](CC[C@@H]4[C@@H]3CC[C@]3(C)[C@@H](C5=CC(=O)OC5)CC[C@]43O)C2)[C@H]1OC(C)=O,LC50,Ostrinia nubilalis,192 µg/mL
C/C=C(\C)C(=O)N[C@@H](c1ccccc1)[C@@H](O)C(=O)O[C@H]1C[C@@]2(O)[C@@H](OC(=O)c3ccccc3)[C@@H]3[C@]4(OC(C)=O)CO[C@@H]4C[C@H](O)[C@@]3(C)C(=O)[C@H](OC(C)=O)C(=C1C)C2(C)C [CEPHALOMANNINE],T/C,P388 [1],158%
same,EC50,KB,0.0038 µg/mL
CO[C@H]1[C@H](O)[C@H](O[C@H]2CC[C@@]3(C)[C@H](CC[C@@H]4[C@@H]3CC[C@]3(C)[C@@H](C5=CC(=O)OC5)CC[C@]43O)C2)O[C@@H](C)[C@@H]1O [NERIIFOLIN],LC50,Ostrinia nubilalis,30 µg/mL
COC(=O)C[C@](O)(CCCC(C)(C)O)C(=O)O[C@@H]1C(OC)=C[C@]23CCCN2CCc2cc4c(cc2[C@H]13)OCO4 [OMACETAXINE MEPESUCCINATE],T/C,L1210,123%
same,T/C,P388 [2],244%
C=C1CO[C@](O)(C2OCOC(C3CC(=O)NC(=O)C3)[C@@H]2O)[C@H]1C (stereo partly specified) [SESBANIMIDE A],EC50,KB,0.0077 µg/mL
same,T/C,PS [3],140%
COc1cc2cc(c1Cl)N(C)C(=O)C[C@H](OC(=O)[C@H](C)N(C)C(=O)C(C)C)[C@]1(C)O[C@H]1[C@H](C)[C@@H]1C[C@@](O)(NC(=O)O1)[C@H](OC)/C=C/C=C(\C)C2OC (stereo partly specified) [TREWIASINE],ED50,KB,2 ×10⁻⁴ ug/ml
same,T/C,PS [4],126%
same,T/C,[5],165%
